According to ChEMBL document CHEMBL1221208, “ATP-competitive inhibitors of the mitotic kinesin KSP that function via an allosteric mechanism” (Nat Chem Biol, 2007):
Numbering of substitutions follows the chain as printed. Activity calls are given as the source filed them. The rule behind the calls is not given here.

Experiments:
[1] = target: T1, Kinesin-like protein KIF11 (Homo sapiens) (UniProt P52732); test: Competitive inhibition of human Eg5 assessed as effect on ATPase activity using varying ATP levels in absence of microtubule by Lineweaver-Burke plot
T1 sequence (whole entry): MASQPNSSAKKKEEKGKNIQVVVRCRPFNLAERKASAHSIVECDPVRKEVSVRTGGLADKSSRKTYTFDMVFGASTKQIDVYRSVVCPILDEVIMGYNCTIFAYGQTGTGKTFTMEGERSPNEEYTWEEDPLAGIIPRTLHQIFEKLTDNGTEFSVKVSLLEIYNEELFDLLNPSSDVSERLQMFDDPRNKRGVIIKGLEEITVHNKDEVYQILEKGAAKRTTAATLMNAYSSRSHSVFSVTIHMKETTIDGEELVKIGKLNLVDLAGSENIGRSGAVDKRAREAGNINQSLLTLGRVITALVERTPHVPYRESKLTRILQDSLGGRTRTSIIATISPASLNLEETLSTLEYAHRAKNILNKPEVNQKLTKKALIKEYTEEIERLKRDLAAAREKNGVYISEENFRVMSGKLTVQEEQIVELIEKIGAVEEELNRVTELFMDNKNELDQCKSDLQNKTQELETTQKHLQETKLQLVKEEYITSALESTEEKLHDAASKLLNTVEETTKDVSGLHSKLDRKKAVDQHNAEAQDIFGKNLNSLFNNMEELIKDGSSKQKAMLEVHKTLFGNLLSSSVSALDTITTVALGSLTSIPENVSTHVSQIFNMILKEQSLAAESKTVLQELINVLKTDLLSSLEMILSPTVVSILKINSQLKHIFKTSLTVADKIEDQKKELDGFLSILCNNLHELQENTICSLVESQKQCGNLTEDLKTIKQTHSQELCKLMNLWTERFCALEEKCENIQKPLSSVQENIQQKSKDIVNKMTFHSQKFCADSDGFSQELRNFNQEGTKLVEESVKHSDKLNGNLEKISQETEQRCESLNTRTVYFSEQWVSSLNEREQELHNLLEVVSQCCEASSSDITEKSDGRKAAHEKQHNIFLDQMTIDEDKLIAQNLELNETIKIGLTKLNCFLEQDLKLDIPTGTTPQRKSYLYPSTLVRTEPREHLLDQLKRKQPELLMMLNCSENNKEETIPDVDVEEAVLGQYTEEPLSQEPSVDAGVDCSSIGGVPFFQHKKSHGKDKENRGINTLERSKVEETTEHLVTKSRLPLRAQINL

[2] = target: T1, Kinesin-like protein KIF11 (Homo sapiens); test: Competitive inhibition of human wild type Eg5 with respect to ATP using varying ATP levels in presence of saturating levels of microtubule by Lineweaver-Burke plot
[3] = target: Kinesin-like protein KIF11 (Homo sapiens, UniProt P52732, A133D); test: Inhibition of human KSP A133D mutant using varying ATP levels in presence of saturating levels of microtubule by Lineweaver-Burke plot
Chain of Kinesin-like protein KIF11 (P52732 whole entry A133D): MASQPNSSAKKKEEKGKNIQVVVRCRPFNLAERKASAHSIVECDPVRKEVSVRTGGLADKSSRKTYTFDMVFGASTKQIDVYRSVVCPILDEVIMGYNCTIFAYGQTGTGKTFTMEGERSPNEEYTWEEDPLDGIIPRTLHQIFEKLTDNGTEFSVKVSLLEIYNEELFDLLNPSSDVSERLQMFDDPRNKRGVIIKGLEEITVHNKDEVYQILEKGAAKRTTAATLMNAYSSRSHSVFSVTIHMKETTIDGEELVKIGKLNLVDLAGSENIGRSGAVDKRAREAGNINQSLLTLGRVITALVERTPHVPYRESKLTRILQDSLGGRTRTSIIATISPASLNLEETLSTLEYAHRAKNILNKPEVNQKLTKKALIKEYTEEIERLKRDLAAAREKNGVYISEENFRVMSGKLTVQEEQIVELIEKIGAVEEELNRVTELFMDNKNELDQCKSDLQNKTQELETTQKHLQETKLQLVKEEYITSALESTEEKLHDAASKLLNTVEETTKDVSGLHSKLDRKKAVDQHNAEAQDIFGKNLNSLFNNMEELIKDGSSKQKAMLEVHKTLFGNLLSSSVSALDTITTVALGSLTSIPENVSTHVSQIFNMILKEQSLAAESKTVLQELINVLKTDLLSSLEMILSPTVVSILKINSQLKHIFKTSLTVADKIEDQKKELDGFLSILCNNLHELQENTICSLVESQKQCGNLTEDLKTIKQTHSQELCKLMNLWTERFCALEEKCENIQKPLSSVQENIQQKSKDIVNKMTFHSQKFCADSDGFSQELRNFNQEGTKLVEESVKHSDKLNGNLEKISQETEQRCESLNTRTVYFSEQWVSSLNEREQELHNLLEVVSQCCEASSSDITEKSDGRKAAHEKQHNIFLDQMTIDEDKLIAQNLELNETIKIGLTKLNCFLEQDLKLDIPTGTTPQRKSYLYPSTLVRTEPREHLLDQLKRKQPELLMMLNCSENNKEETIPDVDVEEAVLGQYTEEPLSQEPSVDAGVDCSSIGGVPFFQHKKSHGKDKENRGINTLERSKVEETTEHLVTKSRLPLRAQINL

[4] = tested on: T2, Kinesin-like protein KIF11 (Homo sapiens), P52732 [D130V]; test: Competitive inhibition of human KSP D130V mutant with respect to ATP using varying ATP levels in presence of saturating levels of microtubule by Lineweaver-Burke plot
T2 sequence (whole entry): T1 sequence (whole entry) with D130V

| inhibition [1] | inhibition [2] | Ki [3] [nM] | inhibition [4] | Structure (SMILES) |
| --- | --- | --- | --- | --- |
| inactive | Active | 6.8 | Active | NC(=O)Nc1ccc(-c2ccc(C(F)(F)F)cc2)cc1F |
| inactive | Active | 1.4 | Active | O=C1CCc2cc(-c3ccc(C(F)(F)F)cc3)ccc2N1 |
